The text below walks through data of patent publication US10392378B2, “Derivatives of 5-phenyl- or 5-heteroarylathiazol-2-carboxylic amide useful for the treatment of inter alia cystic fibrosis” (Proteostasis Therapeutics, Inc., priority 2014, dated 2019).

Test [1] deals with T1, ΔF508-CFTR (Homo sapiens, UniProt P13569, DEL508-508).
T1 construct: Primary lung epithelial cells homozygous for the Cystic Fibrosis-causing ΔF508 mutation; endogenous in cells; host or cells: primary human bronchial (lung) epithelial cells homozygous for ΔF508, differentiated at air-liquid interface
Briefly: hBE equivalent current (Ieq) assay. It is filed as cell-based. To be noted: compound at 10 uM and VX-809 at 1 uM; primary hBE cells homozygous ΔF508; 24 hours treatment. As to the method:
Primary lung epithelial cells homozygous for the Cystic Fibrosis-causing ΔF508 mutation were differentiated for a minimum of 4 weeks in an air-liquid interface on Costar 24 well HTS filter plates prior to the equivalent current (Ieq) measurements. Cells were apically mucus-washed for 30 minutes 24h prior to treatment with compounds. The basolateral media was removed and replaced with media containing the compound of interest diluted to its final concentration from DMSO stocks. Treated cells were incubated at 37° C. and 5% CO2 for 24 hours. At the end of the treatment period, the media was changed to the Ieq experimental solution for 30 minutes before the experiment and plates are maintained in a CO2-free incubator during this period. The plates containing the cells were then placed in pre-warmed heating blocks at 36° C.±0.5 for 15 minutes before measurements are taken. The transepithelial voltage (VT) and conductance (GT) were measured using a custom 24 channel current clamp (TECC-24) with 24 well electrode manifold. The Ieq assay measurements were made following additions with standardized time periods: • 1. The baseline VT and GT values were measured for approximately 20 minutes. • 2. Benzamil was added to block ENaC for 15 minutes. • 3. Forskolin plus VX-770 were added to maximally activate ΔF508-CFTR for 27 minutes. • 4. Bumetanide was added to inhibit the NaK2Cl cotransporter and shut-off secretion of chloride.
The activity data captured was the area under the curve (AUC) for the traces of the equivalent chloride current. The AUC was collected from the time of the forskolin/VX-770 addition until the inhibition by bumetanide addition. Correction in response to compound treatment was scored as the increase in the AUC for compound-treated samples over that of vehicle-treated samples. (** indicates activity ≥200% of VX-809 (1 uM) with compound at 10 uM and VX-809 at 1 uM; * indicates activity 100-200% of VX-809 (1 uM) with compound at 10 uM and VX-809 at 1 uM. ^##indicates activity ≥200% of VX-809 (3 uM) with compound at 10 uM and VX-809 at 3 uM; ^#indicates activity 100-200% of VX-809 (3 uM) with compound at 10 uM and VX-809 at 3 uM

Test [2] concerns the target T1, ΔF508-CFTR. Briefly: Ussing measurements. It is filed as cell-based. To be noted: compound at 10 uM and VX-809 at 3 uM; primary hBE cells homozygous ΔF508; 24 hours treatment. As for the experimental part:
As discussed above, Ussing measurements are used to measure CFTR activity. In this method, primary lung epithelial cells (hBEs) homozygous for the Cystic Fibrosis-causing ΔF508 mutation are differentiated for a minimum of 4 weeks in an air-liquid interface on SnapWell filter plates prior to the Ussing measurements. Cells are apically mucus-washed for 30 minutes prior to treatment with compounds. The basolateral media is removed and replaced with media containing the compound of interest diluted to its final concentration from DMSO stocks. Treated cells are incubated at 37° C. and 5% CO2 for 24 hours. At the end of the treatment period, the cells on filters are transferred to the Ussing chamber and equilibrated for 30 minutes. The short-circuit current is measured in voltage clamp-mode (Vhold=0 mV), and the entire assay is conducted at a temperature of 36° C. −36.5° C. Once the voltages stabilized, the chambers are clamped, and data is recorded by pulse readings every 5 seconds. Following baseline current stabilization, the following additions can be applied and the changes in current and resistance of the cells can be monitored: • 1. Benzamil to the apical chamber to inhibit ENaC sodium channel. • 2. Forskolin to both chambers to activate ΔF508-CFTR by phosphorylation. • 3. Genistein to both chambers to potentiate ΔF508-CFTR channel opening. • 4. CFTRinh-172 to the apical chamber to inhibit ΔF508-CFTR Cl-conductance.
The inhibitable current (that current that is blocked by CFTRinh-172) is measured as the specific activity of the ΔF508-CFTR channel, and increases in response to compound in this activity over that observed in vehicle-treated samples are identified as the correction of ΔF508-CFTR function imparted by the compound tested.

Molecules are shown by their SMILES.

T1 sequence (P13569 with tags, fused parts or gaps DEL508-508): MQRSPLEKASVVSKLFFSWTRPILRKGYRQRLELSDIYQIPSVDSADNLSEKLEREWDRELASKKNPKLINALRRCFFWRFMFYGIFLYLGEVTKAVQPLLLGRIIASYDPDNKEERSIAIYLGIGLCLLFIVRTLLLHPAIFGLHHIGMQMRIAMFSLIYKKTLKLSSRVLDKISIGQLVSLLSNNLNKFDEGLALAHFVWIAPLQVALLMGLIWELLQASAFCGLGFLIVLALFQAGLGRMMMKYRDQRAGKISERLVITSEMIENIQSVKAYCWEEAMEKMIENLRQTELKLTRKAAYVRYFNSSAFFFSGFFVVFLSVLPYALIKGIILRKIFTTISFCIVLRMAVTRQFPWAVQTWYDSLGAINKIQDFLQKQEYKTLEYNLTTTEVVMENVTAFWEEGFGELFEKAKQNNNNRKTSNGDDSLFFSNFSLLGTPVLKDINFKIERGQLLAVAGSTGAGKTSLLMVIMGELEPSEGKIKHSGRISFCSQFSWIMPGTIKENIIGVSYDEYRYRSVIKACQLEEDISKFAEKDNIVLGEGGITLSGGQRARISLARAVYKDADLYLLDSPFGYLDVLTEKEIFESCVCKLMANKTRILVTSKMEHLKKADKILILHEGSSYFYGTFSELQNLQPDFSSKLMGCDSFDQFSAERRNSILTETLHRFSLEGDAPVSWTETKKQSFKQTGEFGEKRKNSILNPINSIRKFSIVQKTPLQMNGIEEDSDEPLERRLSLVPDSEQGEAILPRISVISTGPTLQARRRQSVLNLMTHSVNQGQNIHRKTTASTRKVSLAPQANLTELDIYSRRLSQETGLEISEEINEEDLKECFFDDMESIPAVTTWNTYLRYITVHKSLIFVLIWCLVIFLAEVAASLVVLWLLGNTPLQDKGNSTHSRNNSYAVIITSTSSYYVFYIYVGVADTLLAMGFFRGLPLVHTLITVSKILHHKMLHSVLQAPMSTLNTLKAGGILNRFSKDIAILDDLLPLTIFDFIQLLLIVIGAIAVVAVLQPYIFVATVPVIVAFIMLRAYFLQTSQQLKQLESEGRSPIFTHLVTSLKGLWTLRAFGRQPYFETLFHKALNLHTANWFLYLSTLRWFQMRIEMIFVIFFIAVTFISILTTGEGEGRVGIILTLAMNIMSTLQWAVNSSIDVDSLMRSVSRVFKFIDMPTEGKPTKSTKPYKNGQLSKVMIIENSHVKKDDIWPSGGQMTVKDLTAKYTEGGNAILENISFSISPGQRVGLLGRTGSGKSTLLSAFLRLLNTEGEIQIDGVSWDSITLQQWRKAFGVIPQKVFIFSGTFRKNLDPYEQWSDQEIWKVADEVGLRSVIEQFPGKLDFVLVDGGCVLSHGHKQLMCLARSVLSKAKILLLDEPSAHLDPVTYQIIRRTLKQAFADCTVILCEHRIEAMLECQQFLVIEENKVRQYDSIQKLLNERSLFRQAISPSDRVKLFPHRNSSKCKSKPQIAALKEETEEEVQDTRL

Consider `O=C(NCC1CCCO1)c1ncc(-c2ccccc2)s1` (stereo not drawn) [Example 1, 5-phenyl-N-((tetrahydrofuran-2-yl)methyl)thiazole-2-carboxamide], for which, in test [1], the “leq (AUC of equivalent chloride current, activity relative to VX-809)” value is “** (activity ≥200% of VX-809 (1 uM) with compound at 10 uM and VX-809 at 1 uM)”.
As for `COCCNC(=O)c1ncc(-c2ccccc2)s1` [Example 2, N-(2-methoxyethyl)-5-phenylthiazole-2-carboxamide], the “leq (AUC of equivalent chloride current, activity relative to VX-809)” value in test [1] is “** (activity ≥200% of VX-809 (1 uM) with compound at 10 uM and VX-809 at 1 uM)”.
Still for that read-out and setting: with `O=C(NCCN1CCOCC1)c1ncc(-c2ccccc2)s1` [Example 3, N-(2-morpholinoethyl)-5-phenylthiazole-2-carboxamide] the entry was “** (activity ≥200% of VX-809 (1 uM) with compound at 10 uM and VX-809 at 1 uM)”; with `O=C(NCCCn1ccnc1)c1ncc(-c2ccccc2)s1` [Example 4, N-(3-(1H-imidazol-1-yl)propyl)-5-phenylthiazole-2-carboxamide], “** (activity ≥200% of VX-809 (1 uM) with compound at 10 uM and VX-809 at 1 uM)”.
For the compound `Cn1nccc1CCCNC(=O)c1ncc(-c2ccccc2)s1` [Example 5, N-(3-(1-methyl-1H-pyrazol-5-yl)propyl)-5-phenylthiazole-2-carboxamide], the “leq (AUC of equivalent chloride current, activity relative to VX-809)” value in test [1] is “* (activity 100-200% of VX-809 (1 uM) with compound at 10 uM and VX-809 at 1 uM)”.
In the case of `O=C(NCCc1nnc(CO)s1)c1ncc(-c2ccccc2)s1` [Example 6, N-(2-(5-(hydroxymethyl)-1,3,4-thiadiazol-2-yl)ethyl)-5-phenylthiazole-2-carboxamide], in test [1], the “leq (AUC of equivalent chloride current, activity relative to VX-809)” value is “** (activity ≥200% of VX-809 (1 uM) with compound at 10 uM and VX-809 at 1 uM)”. For the same compound, in test [2], the “Ussing (CFTRinh-172 inhibitable current, activity relative to VX-809)” value is “## (activity ≥200% of VX-809 (3 uM) with compound at 10 uM and VX-809 at 3 uM)”.
With `O=C(NCCc1nnc(CO)o1)c1ncc(-c2ccccc2)s1` [Example 7, N-(2-(5-(hydroxymethyl)-1,3,4-oxadiazol-2-yl)ethyl)-5-phenylthiazole-2-carboxamide], the “leq (AUC of equivalent chloride current, activity relative to VX-809)” value in test [1] was “** (activity ≥200% of VX-809 (1 uM) with compound at 10 uM and VX-809 at 1 uM)”. Moreover, in test [2], the “Ussing (CFTRinh-172 inhibitable current, activity relative to VX-809)” value was “## (activity ≥200% of VX-809 (3 uM) with compound at 10 uM and VX-809 at 3 uM)”.
With `Cc1c(CO)nnn1CCNC(=O)c1ncc(-c2ccccc2)s1` [Example 8, N-(2-(4-(hydroxymethyl)-5-methyl-1H-1,2,3-triazol-1-yl)ethyl)-5-phenylthiazole-2-carboxamide], the “leq (AUC of equivalent chloride current, activity relative to VX-809)” value in test [1] is “** (activity ≥200% of VX-809 (1 uM) with compound at 10 uM and VX-809 at 1 uM)”. Also, in test [2], the “Ussing (CFTRinh-172 inhibitable current, activity relative to VX-809)” value is “## (activity ≥200% of VX-809 (3 uM) with compound at 10 uM and VX-809 at 3 uM)”.
Take `Cc1nnn(CCNC(=O)c2ncc(-c3ccccc3)s2)c1CO` [Example 9, N-(2-(5-(hydroxymethyl)-4-methyl-1H-1,2,3-triazol-1-yl)ethyl)-5-phenylthiazole-2-carboxamide]: the “leq (AUC of equivalent chloride current, activity relative to VX-809)” value in test [1] was “** (activity ≥200% of VX-809 (1 uM) with compound at 10 uM and VX-809 at 1 uM)”.
Consider `O=C(NC1CC(c2nnc(CO)o2)C1)c1ncc(-c2ccccc2)s1` (stereo not drawn) [Example 10, N-cis-3-(5-(hydroxymethyl)-1,3,4-oxadiazol-2-yl)cyclobutyl)-5-phenylthiazole-2-carboxamide], for which the “Ussing (CFTRinh-172 inhibitable current, activity relative to VX-809)” value in test [2] was “## (activity ≥200% of VX-809 (3 uM) with compound at 10 uM and VX-809 at 3 uM)”.
As to `C[C@@H](O)c1nnc(C2CC(NC(=O)c3ncc(-c4ccccc4)s3)C2)o1` (stereo partly drawn) [Example 11], the “Ussing (CFTRinh-172 inhibitable current, activity relative to VX-809)” value in test [2] was “## (activity ≥200% of VX-809 (3 uM) with compound at 10 uM and VX-809 at 3 uM)”.
With `O=C(NC1CC(n2cc(CO)nn2)C1)c1ncc(-c2ccccc2)s1` (stereo not drawn) [Example 12, N-trans-3-(5-(hydroxymethyl)-1H-1,2,3-triazol-1-yl)cyclobutyl)-5-phenylthiazole-2-carboxamide], the “Ussing (CFTRinh-172 inhibitable current, activity relative to VX-809)” value in test [2] is “## (activity ≥200% of VX-809 (3 uM) with compound at 10 uM and VX-809 at 3 uM)”.
